Results: PubChem BioAssay AID1963827 (Molecular Pharmacology Branch, DTP, NCI, 2024)

System: 994946-033-R-J1-PDC complex spheroid viability
Assay: Anticancer human tumor 994946-033-R-J1-PDC patient-derived melanoma cell line growth inhibition [POLQ]
Conditions: for IC50: curve of first compound; for viability, T/C: stronger effect = lower value
Procedure, shortened: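 Growth inhibition in 3D: complex spheroids (tumor PDC, HUVEC, MSC) treated with POLQ inhibitor combinations; where Cmax unknown, highest tested concentration 10 microM, except SN-38 at 1 microM.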
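Note: spheroids exposed to drugs for 7 days.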
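Throughout, for viability, T/C: 100% = DMSO vehicle treated spheroids.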

CC[C@@]1(O)C(=O)OCc2c1cc1n(c2=O)Cc2cc3c(CN(C)C)c(O)ccc3nc2-1 + COC1C(OC(N)=O)C(O)C(Oc2ccc3c(O)c(NC(=O)c4ccc(O)c(CC=C(C)C)c4)c(=O)oc3c2C)OC1(C)C was tested, and the IC50 (second compound 0.0316 µM) was 21.2 nM, the IC50 (second compound 0.1 µM) was 19.8 nM and the IC50 (second compound 0.316 µM) was 21.4 nM. For the same compound, the IC50 (second compound 1 µM) was 20.5 nM, the IC50 (second compound 3.16 µM) was 17.7 nM and the IC50 (second compound 10 µM) was 20.2 nM. The viability, T/C (second compound 0.0316 µM, first compound 0.000316 µM) was 107%, the viability, T/C (second compound 0.0316 µM, first compound 0.001 µM) was 69.1% and the viability, T/C (second compound 0.0316 µM, first compound 0.00316 µM) was 117%. It also gave a viability, T/C (second compound 0.0316 µM, first compound 0.01 µM) of 77.8%, a viability, T/C (second compound 0.0316 µM, first compound 0.0316 µM) of 34.3% and a viability, T/C (second compound 0.0316 µM, first compound 0.1 µM) of 7.91%. It also gave a viability, T/C (second compound 0.1 µM, first compound 0.000316 µM) of 91.4%, a viability, T/C (second compound 0.1 µM, first compound 0.001 µM) of 101% and a viability, T/C (second compound 0.1 µM, first compound 0.00316 µM) of 109%. For the same compound, the viability, T/C (second compound 0.1 µM, first compound 0.01 µM) was 79.2%, the viability, T/C (second compound 0.1 µM, first compound 0.0316 µM) was 29.4% and the viability, T/C (second compound 0.1 µM, first compound 0.1 µM) was 8%. For the same compound, the viability, T/C (second compound 0.316 µM, first compound 0.000316 µM) was 96.6%, the viability, T/C (second compound 0.316 µM, first compound 0.001 µM) was 99.6% and the viability, T/C (second compound 0.316 µM, first compound 0.00316 µM) was 91.3%. It also gave a viability, T/C (second compound 0.316 µM, first compound 0.01 µM) of 86%, a viability, T/C (second compound 0.316 µM, first compound 0.0316 µM) of 31.5% and a viability, T/C (second compound 0.316 µM, first compound 0.1 µM) of 11.3%. It also gave a viability, T/C (second compound 1 µM, first compound 0.000316 µM) of 118%, a viability, T/C (second compound 1 µM, first compound 0.001 µM) of 107% and a viability, T/C (second compound 1 µM, first compound 0.00316 µM) of 100%. For the same compound, the viability, T/C (second compound 1 µM, first compound 0.01 µM) was 81.5%, the viability, T/C (second compound 1 µM, first compound 0.0316 µM) was 30.4% and the viability, T/C (second compound 1 µM, first compound 0.1 µM) was 15.1%. The viability, T/C (second compound 3.16 µM, first compound 0.000316 µM) was 92.7%, the viability, T/C (second compound 3.16 µM, first compound 0.001 µM) was 86.5% and the viability, T/C (second compound 3.16 µM, first compound 0.00316 µM) was 77%. For the same compound, the viability, T/C (second compound 3.16 µM, first compound 0.01 µM) was 73.1%, the viability, T/C (second compound 3.16 µM, first compound 0.0316 µM) was 28% and the viability, T/C (second compound 3.16 µM, first compound 0.1 µM) was 10.2%. For the same compound, the viability, T/C (second compound 10 µM, first compound 0.000316 µM) was 85.5%, the viability, T/C (second compound 10 µM, first compound 0.001 µM) was 86.9% and the viability, T/C (second compound 10 µM, first compound 0.00316 µM) was 85.4%. The viability, T/C (second compound 10 µM, first compound 0.01 µM) was 81%, the viability, T/C (second compound 10 µM, first compound 0.0316 µM) was 30.3% and the viability, T/C (second compound 10 µM, first compound 0.1 µM) was 8.24%.
